Results: patent US20250243176A1, “(S)-1-(1-ACRYLOYLPIPERIDIN-3-YL)-2-FLUORO-5,6,7,8,9,10-HEXAHYDROCYCLO HEPTA[B]INDOLE-4-CARBOXAMIDE, AND RELATED CRYSTALLINE FORMS, COMPOSITIONS, AND METHODS THEREOF” (GB005, Inc., priority 2021, published 2025)
Values after ≈ are worked out from the molar mass of the structure shown. “Also recorded” adds a separate entry of the source. Blank lines part the entries; values can stand above or below the compound they belong to.

How the values were obtained:
Format in all cases: physicochemical
[1] = Approximate solubility, solvent addition method, visual assessment
Protocol: The approximate solubility of the initial solid was determined using a solvent addition method via visual assessment of samples.
Values are rounded to nearest whole number and reported as “<” if dissolution was not observed, and as “>” if dissolution occurred after addition of first aliquot.

[2] = Solid-state stability of Form III
Protocol: The solid-state stability of Compound 1, Form III was examined in duplicate (sample 1 and sample 2) for 7 days under the conditions below and the resultant solids analyzed by XRPD: • 40° C./75% relative humidity (open); and • 60° C. (capped).
The solid-state stability of Compound 1, Form III was also examined for 3 months under the conditions below: • 40° C./75% relative humidity; and • 25° C./60% relative humidity

[3] = Grinding (mechanical treatment) of Form III
Protocol: Polymorph screening of Compound 1 was conducted using various crystallization methods, including slurry, cooling and evaporative crystallization, anti-solvent precipitation, thermal and mechanical treatment.

[4] = Solubility testing in bio-relevant media (Form III); details: 37° C.; for Solubility / solubility at 1 h: 1 h; for Solubility / solubility at 4 h: 4 h; for Solubility / solubility at 24 h: 24 h; for solubility at 1 h / solubility at 4 h / solubility at 24 h: thermodynamic from solid
Protocol: FaSSIF Buffer Solution: 6 mL 0.2 M NaOH, 388.7 mg of NaH2PO4, and 608.2 mg of NaCl were dissolved and diluted to 100 mL with water. The pH was 6.51. FaSSIF Media: 34.56 mg of SIF powder was dissolved in 15 mL of FaSSIF buffer solution. The solution was stirred and equilibrated at ambient temperature with light protection for 2 hours. SIF powder was purchased from Biorelevant.com.
FeSSIF Buffer Solution: 408.4 mg of NaOH, 868.5 mg of acetic acid, and 1.1802 g of NaCl were dissolved and diluted to 100 mL with water. The pH of the solution was 4.98. FeSSIF Media: 168.42 mg of SIF powder was dissolved in 15 mL of FeSSIF buffer solution. The solution was protected from light.
FaSSGF Buffer Solution: 222 mg of NaCl were dissolved with water, then added 1N HCl adjust the pH to 1.6. […] The solution was stirred and equilibrated at ambient temperature with light protection for 2 hours.
FaSSIF-V2 Buffer Solution: 154.4 mg NaOH, 246.7 mg of maleic acid and 445.6 mg of NaCl were dissolved and diluted to 100 mL with water. The pH was 6.51. FaSSIF-V2 Media: 28.64 mg of FaSSIF-V2 powder (purchased from Biorelevant.com) was dissolved in 8 mL of FaSSIF-V2 buffer solution. The solution was stirred and equilibrated at ambient temperature with light protection for 2 hours.
FeSSIF-V2 Buffer Solution: […] of NaOH, 710 mg of maleic acid, and 814.4 mg of NaCl were dissolved and diluted to 100 mL with water. The pH of the solution was 5.8. FeSSIF-V2 Media: 156.16 mg of FeSSIF-V2 powder was dissolved in 8 mL of FeSSIF-V2 buffer solution. The solution was protected from light.
Samples were prepared in duplicate for each medium. The suspensions were shaken at 37° C. for up to 24 hours.

[5] = Competition slurry / inter-conversion study of Form I and Form III; details: competition slurry of Form I and Form III in water and heptane; RT to 80° C.
Protocol: Equal amounts of Form I and Form III were mixed in water and heptane to form slurries and stirred at RT (˜25° C.) or 80° C.

[6] = Dynamic vapor sorption (DVS)
Protocol: Moisture sorption/desorption data was collected on a Vsorp Dynamic Moisture Sorption Analyzer (ProUmid GmbH & Co. KG, Germany). The sample was placed into a tared sample chamber and automatically weighed. • Sample temperature 25° C. • Cycle: Full cycle • Adsorption 0, 10, 20, 30, 40, 50, 60, 70, 80, 90 • Desorption 80, 70, 60, 50, 40, 30, 20, 10, 0

Solubility ([1]; 1,4-dioxane): ~20000 µg/mL (≈ 52200 µM) | Solubility ([1]; 1,4-dioxane, organic solvent or mixture, thermodynamic from solid, 1,4-dioxane, read-out: Solubility): > 20000 µg/mL | Solubility ([1]; 2-butanone (MEK), organic solvent or mixture, thermodynamic from solid, 2-Butanone (MEK), read-out: Solubility): ~8300 µg/mL (≈ 21600 µM) | Solubility ([1]; 2-propanol (IPA), organic solvent or mixture, thermodynamic from solid, 2-Propanol (IPA), read-out: Solubility): ~4200 µg/mL (≈ 11000 µM) | Solubility ([1]; Dimethyl sulfoxide (DMSO)): >250000 µg/mL | Solubility ([1]; Tetrahydrofuran (THF)): ~25000 µg/mL (≈ 65200 µM) | Solubility ([1]; Water): <600 µg/mL | Solubility ([1]; acetone, organic solvent or mixture, thermodynamic from solid, Acetone, read-out: Solubility): ~7100 µg/mL (≈ 18500 µM) | Solubility ([1]; acetonitrile, organic solvent or mixture, thermodynamic from solid, Acetonitrile, read-out: Solubility): ~1700 µg/mL (≈ 4430 µM) | Solubility ([1]; dimethyl sulfoxide (DMSO), organic solvent or mixture, thermodynamic from solid, Dimethyl sulfoxide (DMSO), read-out: Solubility): > 250000 µg/mL | Solubility ([1]; ethanol, organic solvent or mixture, thermodynamic from solid, Ethanol, read-out: Solubility): ~5000 µg/mL (≈ 13000 µM) | Solubility ([1]; ethyl acetate, organic solvent or mixture, thermodynamic from solid, Ethyl acetate, read-out: Solubility): ~2000 µg/mL (≈ 5220 µM) | Solubility ([1]; isopropyl acetate, organic solvent or mixture, thermodynamic from solid, Isopropyl acetate, read-out: Solubility): ~1500 µg/mL (≈ 3910 µM) | Solubility ([1]; methanol, organic solvent or mixture, thermodynamic from solid, Methanol, read-out: Solubility): ~7100 µg/mL (≈ 18500 µM) | Solubility ([1]; n-Heptane): <600 µg/mL | Solubility ([1]; n-butanol (NBA), organic solvent or mixture, thermodynamic from solid, n-Butanol (NBA), read-out: Solubility): ~2300 µg/mL (≈ 6000 µM) | Solubility ([1]; n-heptane, organic solvent or mixture, thermodynamic from solid, n-Heptane, read-out: Solubility): < 600 µg/mL | Solubility ([1]; tetrahydrofuran (THF), organic solvent or mixture, thermodynamic from solid, Tetrahydrofuran (THF), read-out: Solubility): > 20000 µg/mL | Solubility ([1]; toluene, organic solvent or mixture, thermodynamic from solid, Toluene, read-out: Solubility): ~1300 µg/mL (≈ 3390 µM) | Solubility ([1]; water, thermodynamic from solid, Water, read-out: Solubility): < 600 µg/mL
SMILES: C=CC(=O)N1CCC[C@@H](c2c(F)cc(C(N)=O)c3[nH]c4c(c23)CCCCC4)C1 [starting material, (S)-1-(1-acryloylpiperidin-3-yl)-2-fluoro-5,6,7,8,9,10-hexahydrocyclohepta[b]indole-4-carboxamide]

solid-state stability ([2]; 3 months, 40° C./75% relative humidity and 25° C./60% relative humidity): stable | solid-state stability ([2]; 7 days, 40° C./75% relative humidity (open) and 60° C. (capped)): chemically and physically stable | crystal form after grinding [3]: remained unchanged | crystallinity after grinding [3]: decreased slightly | Solubility ([4]; FaSSGF, pH 1.6, pH at 24 h 1.7): <LOQ | Solubility ([4]; pH 5.8 Buffer, pH at 24 h 5.8): <LOQ | Solubility ([4]; pH 6.5 Buffer, pH at 24 h 6.6): <LOQ | solubility at 1 h ([4]; FaSSIF, pH 6.5): 6 µg/mL (≈ 15.6 µM) | solubility at 4 h ([4]; FaSSIF, pH 6.5): 5 µg/mL (≈ 13 µM) | solubility at 24 h ([4]; FaSSIF, pH 6.5, pH at 24 h 6.5): 7 µg/mL (≈ 18.3 µM) | solubility at 1 h ([4]; FaSSIF-V2, pH 6.5): 4 µg/mL (≈ 10.4 µM) | solubility at 4 h ([4]; FaSSIF-V2, pH 6.5): 4 µg/mL (≈ 10.4 µM) | solubility at 24 h ([4]; FaSSIF-V2, pH 6.5, pH at 24 h 6.6): 4 µg/mL (≈ 10.4 µM) | solubility at 1 h ([4]; FeSSIF, pH 5.0): 73 µg/mL (≈ 190 µM) | solubility at 4 h ([4]; FeSSIF, pH 5.0): 75 µg/mL (≈ 196 µM) | solubility at 24 h ([4]; FeSSIF, pH 5.0, pH at 24 h 5.0): 90 µg/mL (≈ 235 µM) | solubility at 1 h ([4]; FeSSIF-V2, pH 5.8): 120 µg/mL (≈ 313 µM) | solubility at 4 h ([4]; FeSSIF-V2, pH 5.8): 200 µg/mL (≈ 522 µM) | solubility at 24 h ([4]; FeSSIF-V2, pH 5.8, pH at 24 h 5.9): 180 µg/mL (≈ 469 µM) | hygroscopicity ([6]; DVS): non-hygroscopic | crystal Form after DVS testing ([6]; XRPD before and after DVS): remained unchanged | weight gain (DVS) ([6]; up to 90% RH, 25° C.): < 0.5%
SMILES: C=CC(=O)N1CCC[C@@H](c2c(F)cc(C(N)=O)c3[nH]c4c(c23)CCCCC4)C1 [Form III, (S)-1-(1-acryloylpiperidin-3-yl)-2-fluoro-5,6,7,8,9,10-hexahydrocyclohepta[b]indole-4-carboxamide]
relative stability of crystal forms [5]: most stable Form; also recorded: more stable than Form I
